According to ChEMBL document CHEMBL5661965, “CI-1033, a pan-erbB tyrosine kinase inhibitor” (Semin Oncol, 2001):

Legend:
Format in all cases: functional
[1] = tested on: A-431; assay: Antitumor activity against human A-431 cells xenografted in mouse assessed as reduction in average tumor volume at 1.25 to 40 mg/kg/day, po started on day 14 post-implant, stopped on day 66, and then restarted on day 76 for 2 additional weeks; settings: dose 1.25-40 mg/kg/day, read-out: MED
[2] = tested on: A-431; assay: Antitumor activity against human A-431 cells xenografted in mouse assessed as average tumor volume at 1.25 to 10 mg/kg/day, po started on day 14 post-implant and measured on day 23 (reference value: >1200 mg); settings: dose 1.25-10 mg/kg/day, time 23 day
[3] = tested on: A-431; assay: Antitumor activity against human A-431 cells xenografted in mouse assessed as average tumor volume at 20 to 40 mg/kg/day, po started on day 14 post-implant and measured on day 23 (reference value: >1200 mg); settings: dose 20-40 mg/kg/day, time 23 day

## C=CC(=O)Nc1cc2c(Nc3ccc(F)c(Cl)c3)ncnc2cc1OCCCN1CCOCC1.Cl.Cl [CANERTINIB DIHYDROCHLORIDE]
[1]
  minimal effective dose: 1.25 mg/kg/day
[2]
  Activity: 175 mg
[3]
  Activity: <=100 mg
